Assay results taken from patent US20260287586A1, “METHODS OF TREATING TKI-RESISTANT AND SDH-DEFICIENT GIST” (priority 2023, published 2026).
Like-named read-outs stand apart in the source and are kept apart here.

Assays:
[1] = system: SDH-deficient GIST; assay: Phase 1 trial HQP1351-SJ-0003: antitumor efficacy per RECIST v1.1 in SDH-deficient GIST subgroup; format: in vivo, human
Text: NCT03594422). The dose escalation aspect of the study enrolled patients with advanced and/or metastatic GIST or other solid tumors that were refractory or had relapsed after treatment with at least one TKI. […] All AEs were graded according to the US National Cancer Institute (NCI) Common Terminology Criteria for Adverse Events (CTCAE; version 4.03). […] Urinalysis, coagulation, cardiac troponin I/T, lipase, amylase, and electrocardiograms were done at baseline; during cycles 1 and 2 (on days 1 and 15); cycle 3, 5, 7, and 9; every 3 cycles after cycle 9 (on day 1); and 14 days after the last dose of treatment. All patients underwent tumor imaging for response assessment via computed tomography or magnetic resonance imaging at screening and every two cycles (8 weeks) until progression or discontinuation. Target and nontarget lesions were assessed per Response Evaluation Criteria in Solid Tumors version 1.1 (RECIST v1.1). CBR was defined as the proportion of patients with a confirmed CR or PR of any duration or SD for at least 16 weeks from the start of treatment (CBR=CR+PR+SD≥16 weeks). ORR was defined as the proportion of patients with a confirmed CR or PR of any duration (ORR=CR+PR). PFS was defined as the time from the start of treatment to the date of first documented disease progression or death due to any cause, whichever occurred first. OS was defined as the time from start of treatment until the date of death. We evaluated antitumor activity in patients from the SDH-deficient GIST population who had at least one postbaseline disease assessment. We used Kaplan-Meier methods to estimate PFS, and OS; corresponding 95% CIs are provided. Efficacy results for patients with SDH-deficient GIST are reported separately. All statistical analyses were performed with SAS (version 9.3 or higher; SAS Institute, Cary, NC).

[2] = system: GIST430 cell-derived xenograft; assay: Imatinib-resistant GIST430 cell-derived xenograft model; format: in vivo; details: olverembatinib 15 mg/kg every other day for 3 weeks; lisaftoclax 50 mg/kg daily for 3 weeks; alone or combined
Text: Therefore, selective inhibition of BCL-2, aided by TKI-mediated MCL-1 and BCL-XL inhibition, markedly augmented cleavage of caspase-3 and poly(ADP-ribose) polymerase 1 (PARP-1), thus triggering apoptosis and subsequently enhancing antitumor effects.

[3] = for AUClast: fed, Day 27 steady state, mean (SD)
Protocol: Noncompartmental pharmacokinetic (PK) analysis was conducted using Phoenix WinNonlin software (Version 6.4).

[4] = system: PC12 or PC12 #5F7 (SDHB KD) cells; assay: Cell death assay (AO/PI staining); format: cell-based, rat; details: 24 hours exposure; FIG. 2B left
Protocol: Cells were extracted from SDH-deficient patient tumor tissues, seeded into 96-well plates, and incubated for 24 hours in GIST culture medium. […] Right panel, Colony formation assay in renal carcinoma cells 7860 (SDHB-wild-type) and OS-RC-2 (SDHB-deficient). Cells were seeded into 6-well plates and incubated overnight in complete culture medium.
Rat pheochromocytoma cells (PC12 or PC12 SDHB KD cells PC12 #5F7) were seeded into 24-well plates and incubated overnight in complete culture medium. […] The cell suspension was mixed at a 1:1 ratio with Viastain™ AOPI Staining solution (acridine orange/propidium iodide, #2210170205, Nexelcom Bioscience, Lawrence, MA, USA). After staining, dead cells were counted on a Cellometer® Auto 2000 Cell Counter (Nexelcom).

[5] = system: SDH-deficient primary GIST cells; assay: Antiproliferation in SDH-deficient primary GIST cells (CellTiter 96 Aqueous assay, 72 hours); format: cell-based, human; details: all three primary cell lines derived from patients with SDH-deficient GIST
Protocol: Cells were seeded into 6-well plates and incubated overnight in complete culture medium.
All samples were collected at Sun Yat-sen University Cancer Center with informed consent obtained from each subject. The study, which involved human subjects, was approved by the Medical Ethics Committee of Sun Yat-sen University Cancer Center.
The tissues from GIST patient samples were sustained in Dulbecco's modified Eagle medium (DMEM)/F12 medium containing 1% antibiotic and washed with phosphate-buffered saline (PBS) and then cut into fragments by surgical ophthalmic scissors. The tissues were digested with 1 mg/mL collagenase IV at 37° C. for 30 minutes, followed by filtration of the suspension into single cells with a single-cell strainer centrifugation. […] The procedures were performed as per manufacturers' instructions.

**Q.** Which overall survival rate ([1]; SDH-deficient GIST cohort at data cut-off) does the source give for `Cc1ccc(C(=O)Nc2ccc(CN3CCN(C)CC3)c(C(F)(F)F)c2)cc1C#Cc1cnc2[nH]ncc2c1` [Olverembatinib, olverembatinib] here?
**A.** 100%

**Q.** What about the “complete response (CR)” value ([1]; SDH-deficient GIST subgroup, 26 evaluable patients) of the same compound?
**A.** No patient experienced a complete response

**Q.** And the “confirmed overall responses per RECIST v1.1” value ([1]; SDH-deficient GIST subgroup, median follow-up 17.0 months)?
**A.** 6 of 26 evaluable patients

**Q.** What about the “median progression-free survival (PFS)” value ([1]; SDH-deficient GIST, Kaplan-Meier estimate, RECIST v1.1) of the same compound?
**A.** 25.7 months

**Q.** And the “Tumor growth inhibition (TGI) rate” value [2]?
**A.** 57.6%

**Q.** And the AUClast ([3]; 20 mg QOD oral, 2 subjects)?
**A.** 228 ± 6.4 h*ng/m

**Q.** What about the AUClast ([3]; 30 mg QOD oral, 4 subjects) of the same compound?
**A.** 307 ± 121 h*ng/m

**Q.** What about the AUClast ([3]; 40 mg QOD oral, 15 subjects) of the same compound?
**A.** 473 ± 177 h*ng/m

**Q.** What about the AUClast ([3]; 50 mg QOD oral, 3 subjects) of the same compound?
**A.** 518 ± 174 h*ng/m

**Q.** What about the “accumulation after multiple-dose administration” value ([3]; 20 to 50 mg QOD) of the same compound?
**A.** no significant accumulation

**Q.** What about the “dose proportionality of Cmax and AUClast” value ([3]; dose range of 20 to 50 mg) of the same compound?
**A.** approximately dose-proportional increase

**Q.** What about the “cell death activity in SDHB KD versus parental cells” value [4] of the same compound?
**A.** dose-dependently more potent activity in PC12 #5F7 than in parental PC12 cells

**Q.** What about the “potency rank among TKIs” value [5] of the same compound?
**A.** most potent inhibitor
